Experimental findings from ChEMBL document CHEMBL1130716, “The solid phase synthesis of a series of tri-substituted hydantoin ligands for the somatostatin SST5 receptor” (Bioorg Med Chem Lett, 1998) are described below.

As usually defined, the IC50 is the concentration that inhibits the measured activity by half. In general, inhibition refers to the percentage by which the read-out fell short of the control.

Active and inactive are the calls of the source. The rule behind the calls is not given here.

Common to all, as to assay type: cell-based
The target of experiment [1] is Somatostatin receptor type 2 (Homo sapiens) (UniProt P30874). As to the kind of experiment: Tested for inhibitory activity at human recombinant sst 2 receptors expressed in CHO-K1 cells; No inhibition showed more than 50% inhibition.
Sequence of Somatostatin receptor type 2 (Homo sapiens) (P30874 whole entry): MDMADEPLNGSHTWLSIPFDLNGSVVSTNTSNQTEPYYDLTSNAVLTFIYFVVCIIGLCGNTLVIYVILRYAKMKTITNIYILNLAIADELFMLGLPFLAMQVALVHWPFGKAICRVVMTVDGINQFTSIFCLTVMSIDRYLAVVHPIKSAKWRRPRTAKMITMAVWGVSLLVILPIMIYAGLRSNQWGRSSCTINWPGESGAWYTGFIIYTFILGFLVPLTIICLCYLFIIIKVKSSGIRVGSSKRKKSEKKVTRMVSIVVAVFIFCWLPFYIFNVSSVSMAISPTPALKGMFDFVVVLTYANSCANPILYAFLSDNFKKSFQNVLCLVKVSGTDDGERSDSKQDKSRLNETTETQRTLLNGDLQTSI
The target of experiment [2] is T1, Somatostatin receptor type 5 (Homo sapiens, UniProt P35346). As to the kind of experiment: Compound was tested for inhibition of specific [125I]Tyr11-SRIF binding to human recombinant SST5 (somatostatin) receptor expressed in CHO-K1 cells.
T1 sequence (P35346 whole entry): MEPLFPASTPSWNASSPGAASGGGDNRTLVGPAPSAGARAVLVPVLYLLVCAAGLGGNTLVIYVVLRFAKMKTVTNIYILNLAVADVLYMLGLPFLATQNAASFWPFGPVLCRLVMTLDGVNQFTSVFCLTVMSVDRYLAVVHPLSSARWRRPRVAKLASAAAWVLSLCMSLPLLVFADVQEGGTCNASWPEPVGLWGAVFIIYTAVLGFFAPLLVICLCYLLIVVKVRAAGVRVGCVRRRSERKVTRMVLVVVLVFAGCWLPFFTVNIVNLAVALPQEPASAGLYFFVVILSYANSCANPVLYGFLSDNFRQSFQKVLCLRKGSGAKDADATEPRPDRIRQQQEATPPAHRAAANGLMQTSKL
The target in experiment [3] is T1, Somatostatin receptor type 5. The experiment is described as follows: Compound was tested for inhibition of specific [125I]-Tyr11-SRIF binding to human recombinant SST5 (somatostatin) receptor expressed in CHO-K1 cells at 10e-6 M concentration.

On to `COc1ccc(CCCCN2C(=O)N(CCN3CCCC3)C(=O)[C@@H]2Cc2ccc(OCc3ccccc3)cc2)cc1`, for which the outcome in experiment [1] was inactive. Moreover, the IC50 in experiment [2] was 501 nM.

In the case of `NCCCC[C@@H](NC(=O)CC1SC(c2ccccc2)N([C@@H](Cc2ccc(-c3ccccc3)cc2)C(N)=O)C1=O)C(N)=O` (some centres undefined), in experiment [1], the result was inactive. For the same molecule, the 50% inhibitory concentration (IC50) in experiment [2] was 1410 nM.

As for `O=C1[C@H](Cc2ccc(OCc3ccccc3)cc2)N(CCCCc2ccccc2)C(=O)N1CCN1CCCC1`, in experiment [1], the result was inactive. In addition, the IC50 in experiment [2] is 316 nM.

Take `COc1ccc(CCCCN2C(=O)N(CCN3CCCC3)C(=O)[C@@H]2Cc2cccc3ccccc23)cc1`: in experiment [3], the inhibition was 60%. Moreover, the result in experiment [1] was inactive.

In the case of `O=C1[C@H](Cc2cccc3ccccc23)N(CCC#Cc2ccccc2)C(=O)N1CCN1CCCC1`, the result in experiment [1] was inactive. Also, the IC50 in experiment [2] is 398 nM.

With `O=C1[C@H](Cc2ccc(OCc3ccccc3)cc2)N(CCC#Cc2ccccc2)C(=O)N1CCN1CCCC1`, in experiment [1], the outcome was inactive. The IC50 in experiment [2] is 316 nM.

For the molecule `O=C1[C@H](Cc2cccc3ccccc23)N(CCCCc2ccccc2)C(=O)N1CCN1CCCC1`, the inhibition in experiment [3] stood at 49%. In addition, in experiment [1], the outcome was inactive.
